# Measured values taken from BindingDB's records for doi:10.3109/14756366.2011.591290 (Agri Ibrahim Cecen University, 2012).
# Experiments:
# Experiment in all cases: CA Activity Assay
# Settings in all cases: pH 7.4; 25 °C
# [1] = target: Carbonic anhydrase 1 (Homo sapiens, UniProt P00915)
# [2] = target: Carbonic anhydrase 2 (Homo sapiens, UniProt P00918)
# [3] = target: Carbonic anhydrase 6 (Homo sapiens, UniProt P23280)
# Carbonic anhydrase 6, sequence (P23280 whole entry): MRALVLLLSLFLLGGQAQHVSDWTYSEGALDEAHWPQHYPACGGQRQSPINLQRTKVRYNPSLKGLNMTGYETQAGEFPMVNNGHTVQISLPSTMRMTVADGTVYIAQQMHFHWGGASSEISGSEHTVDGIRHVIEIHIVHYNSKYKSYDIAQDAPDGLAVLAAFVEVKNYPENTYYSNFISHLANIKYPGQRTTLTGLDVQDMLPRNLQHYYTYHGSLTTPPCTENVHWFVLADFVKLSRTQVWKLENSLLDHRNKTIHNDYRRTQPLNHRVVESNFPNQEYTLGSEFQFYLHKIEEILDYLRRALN
# Carbonic anhydrase 1, sequence (P00915 whole entry): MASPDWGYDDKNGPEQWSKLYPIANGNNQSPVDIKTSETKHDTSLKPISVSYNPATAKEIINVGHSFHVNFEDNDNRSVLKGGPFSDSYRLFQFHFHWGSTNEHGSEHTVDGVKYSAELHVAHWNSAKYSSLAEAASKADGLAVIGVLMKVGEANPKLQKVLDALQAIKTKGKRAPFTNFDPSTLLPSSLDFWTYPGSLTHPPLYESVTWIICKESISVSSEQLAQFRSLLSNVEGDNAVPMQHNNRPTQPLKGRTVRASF
structure (smiles),measurement,setting,value
"NC1CCc2c(ccc(O)c2O)C1 (stereo unspecified) [6-Amino-5,6,7,8-tetrahydro-naphthalene-1,2-diol]",Ki,[1],45100 nM
same,Ki,[2],380 nM
same,Ki,[3],970 nM
"NC1Cc2ccc(Br)cc2C1 (stereo unspecified) [CA inhibitor, 6]",Ki,[1],161000 nM
same,Ki,[2],143000 nM
same,Ki,[3],580 nM
NC1CCc2cc(O)c(O)cc2C1 (stereo unspecified),Ki,[1],41100 nM
same,Ki,[2],440 nM
same,Ki,[3],1150 nM
"NC1Cc2cc(Br)c(Br)cc2C1 [CA inhibitor, 5]",Ki,[2],470000 nM
same,Ki,[3],780 nM
